Measured values published in patent US12077503B2, “Substituted cyclic amides and their use as herbicides” (FMC CORPORATION, priority 2015, dated 2024).

How the values were obtained:
Type in all cases: in vivo
rice (Oryra sativa) = test: Test B flooded paddy test; settings: Flood, 250 g ai/ha, 0 to 100 scale where 0 is no effect and 100 is complete control
Experimental: (§1) Plant species in the flooded paddy test selected from rice (Oryra sativa), sedge, umbrella (small-flower umbrella sedge, Cyperus difformis), ducksalad (Heteranthera limosa), and barnyardgrass (Echinochloa crus-galli) were grown to the 2-leaf stage for testing. At time of treatment, test pots were flooded to 3 cm above the soil surface, treated by application of test compounds directly to the paddy water, and then maintained at that water depth for the duration of the test. Treated plants and controls were maintained in a greenhouse for 13 to 15 d, after which time all species were compared to controls and visually evaluated. Plant response ratings, summarized in Table B, are based on a scale of 0 to 100 where 0 is no effect and 100 is complete control. A dash (-) response means no test result.

[1] = system: sedge, umbrella (small-flower umbrella sedge, Cyperus difformis); test: Test B flooded paddy test; settings: Flood, 250 g ai/ha
Experimental: as §1

[2] = system: barnyardgrass (Echinochloa crus-galli); test: Test B flooded paddy test; settings: Flood, 250 g ai/ha, 0 to 100 scale where 0 is no effect and 100 is complete control
Experimental: as §1

[3] = system: ducksalad (Heteranthera limosa); test: Test B flooded paddy test; settings: Flood, 250 g ai/ha, 0 to 100 scale where 0 is no effect and 100 is complete control
Experimental: as §1

[4] = system: pigweed (Amaranthus retroflexus); test: Test A preemergence; settings: for Plant response rating, Pigweed: 125 g ai/ha, 0 to 100 scale (0 no effect, 100 complete control)
Text: (§2) Seeds of plant species selected from barnyardgrass (Echinochloa crus-galli), Kochia (Kochia scoparia), ragweed (common ragweed, Ambrosia elatior), ryegrass, Italian (Italian ryegrass, Lolium multiflorum), crabgrass, large (Digitaria sanguinalis), giant foxtail (Setaria faberii), green foxtail (Setaria viridis), morningglory (Ipomoea spp.), pigweed (Amaranthus retroflexus), velvetleaf (Abutilon theophrasti), wheat (Triticum aestivum), and corn (Zea mays) were planted into a blend of loam soil and sand and treated preemergence with a directed soil spray using test chemicals formulated in anon-phytotoxic solvent mixture which included a surfactant.
(§3) At the same time, plants selected from these crop and weed species and also blackgrass (Alopecurus myosuroides), and Galium (catchweed bedstraw, Galium aparine) were planted in pots containing the same blend of loam soil and sand and treated with postemergence applications of test chemicals formulated in the same manner. Plants ranged in height from 2 to 10 cm and were in the one- to two-leaf stage for the postemergence treatment. Treated plants and untreated controls were maintained in a greenhouse for approximately 10 d, after which time all treated plants were compared to untreated controls and visually evaluated for injury. Plant response ratings, summarized in Table A, are based on a 0 to 100 scale where 0 is no effect and 100 is complete control. A dash (-) response means no test result.

Kochia (Kochia scoparia) [5] = test: Test A preemergence; settings: for Plant response rating, Kochia: 125 g ai/ha, 0 to 100 scale (0 no effect, 100 complete control)
Text: as §2, §3

[6] = system: barnyardgrass (Echinochloa crus-galli); test: Test A preemergence; settings: for Plant response rating, Barnyardgrass: 125 g ai/ha, 0 to 100 scale (0 no effect, 100 complete control)
Text: as §2, §3

[7] = system: giant foxtail (Setaria faberii); test: Test A preemergence; settings: for Plant response rating, Foxtail, Giant: 125 g ai/ha, 0 to 100 scale (0 no effect, 100 complete control)
Text: as §2, §3

[8] = system: ragweed (common ragweed, Ambrosia elatior); test: Test A preemergence; settings: for Plant response rating, Ragweed: 125 g ai/ha, 0 to 100 scale (0 no effect, 100 complete control)
Text: as §2, §3

[9] = system: ryegrass, Italian (Italian ryegrass, Lolium multiflorum); test: Test A preemergence; settings: for Plant response rating, Ryegrass, Italian: 125 g ai/ha, 0 to 100 scale (0 no effect, 100 complete control)
Text: as §2, §3

[10] = system: Galium (catchweed bedstraw, Galium aparine); test: Test A postemergence; settings: for Plant response rating, Galium: 500 g ai/ha
Text: as §2, §3

[11] = system: pigweed (Amaranthus retroflexus); test: Test A postemergence; settings: for Plant response rating, Pigweed: 500 g ai/ha
Text: as §2, §3

corn (Zea mays) = test: Test A postemergence; settings: for Plant response rating, Corn: 500 g ai/ha
Text: as §2, §3

Kochia (Kochia scoparia) [12] = test: Test A postemergence; settings: for Plant response rating, Kochia: 500 g ai/ha
Text: as §2, §3

[13] = system: barnyardgrass (Echinochloa crus-galli); test: Test A postemergence; settings: postemergence
Text: as §2, §3

[14] = system: giant foxtail (Setaria faberii); test: Test A postemergence; settings: for Plant response rating, Foxtail, Giant: 500 g ai/ha
Text: as §2, §3

[15] = system: ragweed (common ragweed, Ambrosia elatior); test: Test A postemergence; settings: for Plant response rating, Ragweed: 500 g ai/ha
Text: as §2, §3

[16] = system: blackgrass (Alopecurus myosuroides); test: Test A postemergence; settings: for Plant response rating, Blackgrass: 500 g ai/ha
Text: as §2, §3

[17] = system: wheat (Triticum aestivum); test: Test A postemergence; settings: for Plant response rating, Wheat: 500 g ai/ha
Text: as §2, §3

[18] = system: ryegrass, Italian (Italian ryegrass, Lolium multiflorum); test: Test A postemergence; settings: for Plant response rating, Ryegrass, Italian: 500 g ai/ha
Text: as §2, §3

[19] = Preemergence, 500 g ai/ha, visual injury approx. 10 d
[20] = 125 g ai/ha, postemergence, visual injury rating on 0 to 100 scale (0 no effect, 100 complete control), approx. 10 d
[21] = postemergence, 0 to 100 scale, 0 no effect, 100 complete control
[22] = 500 g ai/ha, preemergence, 0 to 100 scale where 0 is no effect and 100 is complete control
[23] = 125 g ai/ha, Postemergence, visual rating about 10 d after treatment
[24] = Postemergence, visual injury, 0 to 100 scale (0 no effect, 100 complete control), approx. 10 d

O=C(Nc1cccc(F)c1F)C1C(=S)NCC1c1cccc(C(F)(F)F)c1 (stereo not drawn) [Compound 454]
0: Plant response rating, Sedge, Umbrella ([1]; 0 to 100 scale where 0 is no effect and 100 is complete control, 13 to 15 d) | Plant response rating, Pigweed ([4]; preemergence) | Pigweed plant response rating (0 to 100 scale, 0 is no effect, 100 is complete control) [4, 19] | Plant response rating, Kochia (Kochia (Kochia scoparia) [5]; preemergence) | Kochia plant response rating (0 to 100 scale, 0 is no effect, 100 is complete control) (Kochia (Kochia scoparia) [5]; [19]) | Plant response rating, Ragweed ([8]; preemergence) | Ragweed plant response rating (0 to 100 scale, 0 is no effect, 100 is complete control) [8, 19] | Plant response rating, Ryegrass, Italian ([9]; preemergence) | Galium plant response rating [10, 20] | Pigweed plant response rating [11, 20] | Plant response rating, Pigweed [11, 21] | Kochia plant response rating (Kochia (Kochia scoparia) [12]; [20]) | Plant response rating, Kochia (Kochia (Kochia scoparia) [12]; [21]) | Ragweed plant response rating [15, 20] | Plant response rating, Ragweed [15, 21] | Blackgrass plant response rating [16, 20] | Ryegrass, Italian plant response rating [18, 20]
15: Plant response rating, Rice (rice (Oryra sativa); 13 to 15 d)
70: Plant response rating, Barnyardgrass ([6]; preemergence) | Plant response rating, Corn (corn (Zea mays); [21]) | Foxtail, Giant plant response rating [14, 20]
60: Plant response rating, Ducksalad ([3]; 13 to 15 d) | Barnyardgrass plant response rating ([13]; 125 g ai/ha, visual injury rating on 0 to 100 scale (0 no effect, 100 complete control), approx. 10 d)
50: Corn plant response rating (corn (Zea mays); [20]) | Plant response rating, Blackgrass [16, 21]
30: Ryegrass, Italian plant response rating (0 to 100 scale, 0 is no effect, 100 is complete control) [9, 19] | Plant response rating, Galium [10, 21]
20: Wheat plant response rating [17, 20]
40: Plant response rating, Barnyardgrass ([2]; 13 to 15 d) | Plant response rating, Wheat [17, 21] | Plant response rating, Ryegrass, Italian [18, 21]
80: Barnyardgrass plant response rating (0 to 100 scale, 0 is no effect, 100 is complete control) [6, 19] | Plant response rating, Foxtail, Giant ([7]; preemergence) | Plant response rating, Barnyardgrass ([13]; 500 g ai/ha, 0 to 100 scale, 0 no effect, 100 complete control) | Plant response rating, Foxtail, Giant [14, 21]
90: Foxtail, Giant plant response rating (0 to 100 scale, 0 is no effect, 100 is complete control) [7, 19]

Cc1cc([C@H]2CN(C)C(=O)[C@@H]2C(=O)Nc2ccccc2[S+](C)[O-])ccc1F (stereo partly drawn) [Compound 1314]
50: Plant response rating, Galium [10, 24] | Kochia plant response rating (0 to 100 scale) (Kochia (Kochia scoparia) [12]; [23]) | Plant response rating, Ragweed [15, 24]
30: Galium plant response rating (0 to 100 scale) [10, 23] | Plant response rating, Pigweed [11, 24] | Corn plant response rating (0 to 100 scale) (corn (Zea mays); [23])
65: Barnyardgrass plant response rating [2]
90: Plant response rating, Foxtail, Giant ([7]; Preemergence) | Foxtail, Giant plant response rating (0 to 100 scale) [14, 23] | Plant response rating, Foxtail, Giant [14, 24]
100: Ducksalad plant response rating [3] | Barnyardgrass plant response rating [6, 22] | Plant response rating, Barnyardgrass ([6]; Preemergence) | Foxtail, Giant plant response rating [7, 22] | Ragweed plant response rating [8, 22]
60: Plant response rating, Kochia (Kochia (Kochia scoparia) [12]; [24]) | Plant response rating, Blackgrass [16, 24] | Plant response rating, Wheat [17, 24]
20: Plant response rating, Ryegrass, Italian ([9]; Preemergence) | Wheat plant response rating (0 to 100 scale) [17, 23]
80: Kochia plant response rating (Kochia (Kochia scoparia) [5]; [22]) | Plant response rating, Kochia (Kochia (Kochia scoparia) [5]; Preemergence) | Plant response rating, Ragweed ([8]; Preemergence)
0: Rice plant response rating (rice (Oryra sativa)) | Plant response rating, Sedge, Umbrella (0 to 100 scale where 0 is no effect and 100 is complete control) ([1]; visually evaluated after 13 to 15 d) | Plant response rating, Pigweed ([4]; Preemergence) | Pigweed plant response rating (0 to 100 scale) [11, 23] | Ragweed plant response rating (0 to 100 scale) [15, 23] | Blackgrass plant response rating (0 to 100 scale) [16, 23] | Ryegrass, Italian plant response rating (0 to 100 scale) [18, 23] | Plant response rating, Ryegrass, Italian [18, 24]
70: Pigweed plant response rating [4, 22] | Plant response rating, Corn (corn (Zea mays); [24])
